One test relates to SK-MEL-3 cells. The test is described as follows: Assay 1 cell proliferation measurement (CTG, 72 h), SK-MEL-3. It counts as cell-based, human. The conditions noted are these: Homo sapiens, SK-MEL3; Assay 1, 72 h, Cell Titer Glo; read-out: SK-MEL-3 IC50 [nM] (melanoma). The method, boiled down: (§1)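 Growth inhibition relative to a 0 h baseline plate and 0.3% DMSO control, with IC50 fitted by 4-parameter curve. Compound exposure lasted 72 h at 37 °C across a 2.5-fold, 10-step series starting generally at 100 nM final.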
Background: ATP-based viability assays read luminescence as a measure of living cells.

The target in the next test is human full length PDE3B (Homo sapiens (Human), UniProt Q13370). As to the kind of experiment: Assay 5 PDE3B enzyme inhibition (3H-cAMP SPA). Particulars: Sf9 cell extract. It counts as biochemical. The gist of the method: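 Sf9 cell extract expressing human full-length PDE3B, diluted for linear kinetics (<70% substrate use), in 50 mM Tris/HCl pH 7.5, 8.3 mM MgCl2, 1.7 mM EDTA. [8-3H]cAMP substrate, 60 min at room temperature; stopped with yttrium SPA beads, scintillation counting. IC50 from sigmoidal activity vs log concentration curves.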

In the next test the target is human full length PDE3A (Homo sapiens (Human), UniProt Q14432). As to the kind of experiment: Assay 4 PDE3A enzyme inhibition (3H-cAMP SPA). Particulars: Sf9 cell extract. It counts as biochemical. The gist of the method: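 Enzyme: Sf9 extract with overexpressed full-length PDE3A; substrate [8-3H]cAMP, 0.025 μCi/well; 60 min, room temperature, Tris/HCl pH 7.5 buffer with MgCl2, EDTA, BSA.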

The next test concerns HeLa cells. As to the kind of experiment: Assay 1 cell proliferation measurement (CTG, 72 h), HeLa. It counts as cell-based, human. The conditions noted are these: Homo sapiens, HeLa; Assay 1, 72 h, Cell Titer Glo; read-out: HeLa IC50 [nM] (Cervical cancer). The method, boiled down: as §1

The term IC50 denotes the concentration that gives 50% inhibition.

Sequence of human full length PDE3B (Q13370 whole entry): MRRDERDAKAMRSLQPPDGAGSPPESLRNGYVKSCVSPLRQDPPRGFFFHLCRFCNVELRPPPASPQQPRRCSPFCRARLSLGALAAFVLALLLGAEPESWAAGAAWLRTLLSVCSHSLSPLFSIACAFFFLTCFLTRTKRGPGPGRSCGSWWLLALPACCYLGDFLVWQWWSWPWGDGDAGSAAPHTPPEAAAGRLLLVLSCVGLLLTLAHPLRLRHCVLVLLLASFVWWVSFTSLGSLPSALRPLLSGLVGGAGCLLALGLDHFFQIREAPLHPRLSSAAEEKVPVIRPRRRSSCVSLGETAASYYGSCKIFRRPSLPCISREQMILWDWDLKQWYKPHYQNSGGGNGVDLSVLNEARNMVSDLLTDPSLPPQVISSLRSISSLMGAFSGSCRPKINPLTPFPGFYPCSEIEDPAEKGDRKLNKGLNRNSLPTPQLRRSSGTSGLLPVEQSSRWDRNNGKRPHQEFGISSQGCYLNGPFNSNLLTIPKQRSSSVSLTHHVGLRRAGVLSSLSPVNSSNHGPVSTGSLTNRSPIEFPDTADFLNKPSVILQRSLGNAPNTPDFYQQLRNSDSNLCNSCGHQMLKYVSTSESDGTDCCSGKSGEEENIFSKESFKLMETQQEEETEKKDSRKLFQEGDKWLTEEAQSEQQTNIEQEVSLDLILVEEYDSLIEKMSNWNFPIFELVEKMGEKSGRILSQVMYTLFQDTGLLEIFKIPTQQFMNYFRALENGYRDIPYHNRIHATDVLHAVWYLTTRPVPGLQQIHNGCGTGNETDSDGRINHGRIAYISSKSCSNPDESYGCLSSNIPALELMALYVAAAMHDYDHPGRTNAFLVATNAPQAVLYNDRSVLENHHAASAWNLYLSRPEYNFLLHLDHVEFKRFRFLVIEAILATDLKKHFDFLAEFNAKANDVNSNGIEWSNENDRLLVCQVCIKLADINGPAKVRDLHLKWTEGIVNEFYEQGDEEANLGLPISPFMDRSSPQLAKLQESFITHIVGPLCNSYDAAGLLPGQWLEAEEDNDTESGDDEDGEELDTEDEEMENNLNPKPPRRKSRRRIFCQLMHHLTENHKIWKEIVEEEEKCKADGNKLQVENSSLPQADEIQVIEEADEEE
Sequence of human full length PDE3A (Q14432 whole entry): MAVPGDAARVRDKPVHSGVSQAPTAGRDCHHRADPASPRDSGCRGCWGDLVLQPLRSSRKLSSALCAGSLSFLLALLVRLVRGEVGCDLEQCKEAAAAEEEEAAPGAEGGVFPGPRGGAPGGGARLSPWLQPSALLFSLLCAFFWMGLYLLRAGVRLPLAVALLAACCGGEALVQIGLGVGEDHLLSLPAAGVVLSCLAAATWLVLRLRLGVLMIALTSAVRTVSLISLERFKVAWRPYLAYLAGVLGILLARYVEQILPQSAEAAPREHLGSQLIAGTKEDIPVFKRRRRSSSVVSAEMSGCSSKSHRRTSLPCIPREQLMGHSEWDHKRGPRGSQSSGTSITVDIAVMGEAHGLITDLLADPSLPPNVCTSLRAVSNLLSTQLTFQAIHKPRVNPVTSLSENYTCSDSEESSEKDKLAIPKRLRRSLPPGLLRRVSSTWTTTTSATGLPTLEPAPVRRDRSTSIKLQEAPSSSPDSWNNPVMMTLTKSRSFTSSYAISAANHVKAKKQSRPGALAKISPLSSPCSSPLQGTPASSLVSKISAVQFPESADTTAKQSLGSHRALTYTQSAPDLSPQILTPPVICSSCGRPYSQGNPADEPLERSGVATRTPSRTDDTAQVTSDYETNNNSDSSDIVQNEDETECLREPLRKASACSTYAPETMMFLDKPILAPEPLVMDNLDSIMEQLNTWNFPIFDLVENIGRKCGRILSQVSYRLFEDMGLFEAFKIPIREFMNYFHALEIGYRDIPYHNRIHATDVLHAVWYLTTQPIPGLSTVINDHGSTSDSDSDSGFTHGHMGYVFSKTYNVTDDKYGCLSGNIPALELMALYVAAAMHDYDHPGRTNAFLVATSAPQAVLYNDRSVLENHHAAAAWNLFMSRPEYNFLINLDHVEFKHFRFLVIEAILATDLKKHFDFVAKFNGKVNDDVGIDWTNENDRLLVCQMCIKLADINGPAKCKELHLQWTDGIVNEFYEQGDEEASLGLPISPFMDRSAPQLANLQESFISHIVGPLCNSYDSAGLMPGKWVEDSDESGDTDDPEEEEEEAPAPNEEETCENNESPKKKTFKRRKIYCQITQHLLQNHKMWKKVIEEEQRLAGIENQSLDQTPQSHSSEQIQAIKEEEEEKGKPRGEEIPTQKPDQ

For the compound `O=C1NN=C(c2ccc(N[C@H]3CC[C@H](O)CC3)c(C(F)(F)F)c2)CO1` [Example 211, (trans)-5-[4-{[4-Hydroxycyclohexyl]amino}-3-(trifluoromethyl)phenyl]-3,6-dihydro-2H-1,3,4-oxadiazin-2-one], the IC50 in the test on SK-MEL-3 cells stood at 2 nM; at human full length PDE3B it was 0.054 µM; against human full length PDE3A, 0.029 µM; in the test on HeLa cells it was 2 nM.

With `CC(C)(O)CNc1ccc(C2=NNC(=O)OC2)cc1C(F)(F)F` [Example 210, 5-{4-[(2-Hydroxy-2-methylpropyl)amino]-3-(trifluoromethyl)phenyl}-3,6-dihydro-2H-1,3,4-oxadiazin-2-one], the IC50 in the test on SK-MEL-3 cells stood at 8 nM; against human full length PDE3B it was 0.363 µM; on human full length PDE3A, 0.14 µM; in the test on HeLa cells it was 6 nM.

`Cc1ncc(-c2ccc(C3=NNC(=O)OC3)cc2C)cn1` [Example 28, 5-[3-Methyl-4-(2-methylpyrimidin-5-yl)phenyl]-3,6-dihydro-2H-1,3,4-oxadiazin-2-one]: the IC50 in the test with SK-MEL-3 cells worked out at 28 nM; against human full length PDE3B, 0.04 µM; at human full length PDE3A it was 0.031 µM; with HeLa cells it was 14 nM.

Regarding `CC(C)(O)c1ccc(C2=NNC(=O)OC2)cc1C(F)(F)F` [Example 278, 5-[4-(2-Hydroxypropan-2-yl)-3-(trifluoromethyl)phenyl]-3,6-dihydro-2H-1,3,4-oxadiazin-2-one], the IC50 in the test on SK-MEL-3 cells was 80 nM; against human full length PDE3B, more than 1 µM; against human full length PDE3A, more than 1 µM; in the test on HeLa cells, 58 nM.

Consider `O=C1NN=C(c2ccc(Cl)c(OC(F)(F)F)c2)CO1` [Intermediate 73, 5-[4-Chloro-3-(trifluoromethoxy)phenyl]-3,6-dihydro-2H-1,3,4-oxadiazin-2-one], for which the IC50 with SK-MEL-3 cells was more than 100 nM; against human full length PDE3B it was more than 1 µM; against human full length PDE3A, 0.72 µM; with HeLa cells, 58 nM.

Consider `Cn1c(C#N)ccc1-c1ccc(C2=NNC(=O)OC2)cc1C(F)(F)F` [Example 50, 1-Methyl-5-[4-(2-oxo-3,6-dihydro-2H-1,3,4-oxadiazin-5-yl)-2-(trifluoromethyl)phenyl]-1H-pyrrole-2-carbonitrile], for which the IC50 in the test on SK-MEL-3 cells was found to be 19800 nM; against human full length PDE3B, 0.21 µM; against human full length PDE3A, 0.26 µM; in the test with HeLa cells, 81 nM.

For the compound `O=C1NN=C(c2ccc(-c3ccc(C(F)(F)F)s3)c(C(F)(F)F)c2)CO1` [Example 156, 5-{3-(Trifluoromethyl)-4-[5-(trifluoromethyl)thiophen-2-yl]phenyl}-3,6-dihydro-2H-1,3,4-oxadiazin-2-one], the IC50 in the test with SK-MEL-3 cells stood at 68 nM; against human full length PDE3B it was 0.65 µM; on human full length PDE3A, 0.44 µM; in the test with HeLa cells, 55 nM.

For the compound `Nc1cc(-c2ccc(C3=NNC(=O)OC3)cc2OC(F)(F)F)ccc1F` [Example 60, 5-[3′-Amino-4′-fluoro-2-(trifluoromethoxy)biphenyl-4-yl]-3,6-dihydro-2H-1,3,4-oxadiazin-2-one], the IC50 in the test on SK-MEL-3 cells worked out at 20 nM; against human full length PDE3B, 0.51 µM; against human full length PDE3A, 0.27 µM; in the test on HeLa cells, 13 nM.

With `CC1OC(=O)NN=C1c1ccc(N2CCOCC2)c(F)c1` (racemic) [Example 119, (rac)-5-(3-Fluoro-4-morpholinophenyl)-6-methyl-3,6-dihydro-2H-1,3,4-oxadiazin-2-one], the IC50 with SK-MEL-3 cells worked out at 7 nM; against human full length PDE3B, 0.013 µM; against human full length PDE3A, 0.036 µM; in the test with HeLa cells it was 5 nM.

As to `O=C1NN=C(c2ccc(-c3cc(F)ccc3F)c(F)c2)CO1` [Example 100, 5-(2,2′,5′-Trifluoro[1,1′-biphenyl]-4-yl)-3,6-dihydro-2H-1,3,4-oxadiazin-2-one], the IC50 came to 9 nM with SK-MEL-3 cells, 0.066 µM on human full length PDE3B, 0.048 µM against human full length PDE3A and 5 nM in the test with HeLa cells.

As to `O=C1NN=C(c2ccc(-c3cn[nH]c3)c(C(F)F)c2)CO1` [Example 202, 5-(3-(difluoromethyl)-4-(1H-pyrazol-4-yl)phenyl)-3H-1,3,4-oxadiazin-2(6H)-one], the IC50 in the test with SK-MEL-3 cells was determined as 12 nM; on human full length PDE3B it was 0.063 µM; on human full length PDE3A it was 0.076 µM; in the test with HeLa cells, 5 nM.

On to `O=C1NN=C(c2ccc(NC3CCOCC3)c(C(F)(F)F)c2)CO1` [Example 205, 5-{4-[(Oxan-4-yl)amino]-3-(trifluoromethyl)phenyl}-3,6-dihydro-2H-1,3,4-oxadiazin-2-one], for which the IC50 with SK-MEL-3 cells was 5 nM; on human full length PDE3B it was 0.123 µM; against human full length PDE3A, 0.053 µM; in the test on HeLa cells it was 4 nM.

As for `Cc1ccc(-c2ccc(C3=NNC(=O)O[C@H]3C)cc2C(F)(F)F)cn1` [Example 167, (6S)-6-Methyl-5-[4-(6-methylpyridin-3-yl)-3-(trifluoromethyl)phenyl]-3,6-dihydro-2H-1,3,4-oxadiazin-2-one], the IC50 with SK-MEL-3 cells was 6 nM; against human full length PDE3B, 0.066 µM; on human full length PDE3A, 0.034 µM; in the test on HeLa cells it was 4 nM.

As for `Cc1cc(C2=NNC(=O)OC2)ccc1-c1ccc(=O)[nH]c1` [Example 12, 5-[3-Methyl-4-(6-oxo-1,6-dihydropyridin-3-yl)phenyl]-3,6-dihydro-2H-1,3,4-oxadiazin-2-one], the IC50 in the test on SK-MEL-3 cells amounted to 58 nM; against human full length PDE3B, 0.03 µM; against human full length PDE3A it was 0.031 µM; in the test on HeLa cells it was 20 nM.

In the case of `O=C1NN=C(c2ccc(-c3ccc4cn[nH]c4c3)c(C(F)(F)F)c2)CO1` [Example 47, 5-[4-(1H-Indazol-6-yl)-3-(trifluoromethyl)phenyl]-3,6-dihydro-2H-1,3,4-oxadiazin-2-one], the IC50 in the test with SK-MEL-3 cells amounted to 2 nM; on human full length PDE3B, 0.033 µM; against human full length PDE3A, 0.053 µM; with HeLa cells, 2 nM.

Regarding `O=C1NN=C(c2cc(F)c(N3CCOCC3)c(F)c2)CO1` [Example 21, 5-[3,5-Difluoro-4-(morpholin-4-yl)phenyl]-3,6-dihydro-2H-1,3,4-oxadiazin-2-one], the IC50 was more than 67 nM in the test with SK-MEL-3 cells, 0.185 µM at human full length PDE3B, 0.175 µM against human full length PDE3A and 15 nM in the test with HeLa cells.

As for `O=C1NN=C(c2ccc(NC[C@H](O)C(F)(F)F)c(C(F)(F)F)c2)CO1` [Example 209, 5-[4-{[3,3,3-Trifluoro-(2S)-hydroxypropyl]amino}-3-(trifluoromethyl)phenyl]-3,6-dihydro-2H-1,3,4-oxadiazin-2-one], the IC50 in the test with SK-MEL-3 cells stood at 7 nM; against human full length PDE3B it was 0.533 µM; against human full length PDE3A, 0.275 µM; in the test with HeLa cells it was 7 nM.

Turning to `CNc1ccc(-c2ccc(C3=NNC(=O)OC3)cc2C(F)(F)F)cc1` [Example 55, 5-[4′-(Methylamino)-2-(trifluoromethyl)biphenyl-4-yl]-3,6-dihydro-2H-1,3,4-oxadiazin-2-one], the IC50 turned out to be 14 nM in the test on SK-MEL-3 cells, 0.25 µM at human full length PDE3B, 0.28 µM on human full length PDE3A and 7 nM in the test with HeLa cells.

As to `CC(C)(O)CCNc1ccc(C2=NNC(=O)OC2)cc1C(F)(F)F` [Example 319, 5-{4-[(3-hydroxy-3-methylbutyl)amino]-3-(trifluoromethyl)phenyl}-3,6-dihydro-2H-1,3,4-oxadiazin-2-one], the IC50 with SK-MEL-3 cells is more than 100 nM; at human full length PDE3B, 0.18 µM; at human full length PDE3A, 0.07 µM; with HeLa cells it was 61 nM.

(Values after US11427553B2, “Dihydrooxadiazinones” (Bayer Aktiengesellschaft, priority 2017, dated 2022).)
